Here are results for one compound from patent US20250152723A1, “ANTIBODY-DRUG CONJUGATES INVOLVING ERIANIN AND THE FABRICATION METHODS AND APPLICATIONS THEREOF” (Laboratory for Synthetic Chemistry and Chemical Biology …, priority 2023, published 2025).

The test system of assay [1] is SK-OV-3 ovarian cancer cell (HER2+). Description: In vitro anti-proliferative study (NBB staining, 6 days). The assay is classed as cell-based, human. To be noted: SK-OV-3 (HER2+), 6 days incubation, mean±SD. As to the method: (§1) Briefly, Different cell lines (1×10^3 cells/well) are seeded in a microtiter plate (96 well) and incubated overnight before the treatment. […] After the media is removed, the cells are fixed with formaldehyde (3%; 50 μL) in PBS and stained with NBB reagent (0.05%, 0.1 M sodium acetate, 9% acetic acid; 50 μL) for overnight. The stained cells in each well are washed thrice gently with deionized water and solubilized in sodium hydroxide solution (50 mM; 100 μL). The cell viability is determined by measuring the absorbance of 620 nm in each well by microplate reader. The experiments are repeated in triplicate. The IC50 values are presented as the mean±standard deviation.

Assay [2] relates to MCF-10A breast epithelial cell (HER2−). The description is as above. To be noted: MCF-10A (HER2−), 6 days incubation, mean±SD. The assay is classed as cell-based. Here is the method: as §1
The subject of assay [3] is MDA-MB-231 breast cancer cell (HER2−). The assay is described as above. The assay is classed as cell-based. To be noted: MDA-MB-231 (HER2−), 6 days incubation, mean±SD. Here is the method: as §1
In assay [4] the test system is SK-BR-3 breast cancer cell (HER2+). The description is as above. The assay is classed as cell-based. To be noted: SK-BR-3 (HER2+), 6 days incubation, mean±SD. Here is the method: as §1
Assay [5] deals with HER2-positive SK-OV-3 human ovarian cancer xenograft. The experiment in a line: Antitumor activity in SK-OV-3 xenograft model. The assay is classed as in vivo, Female BALB/cAnN-nu (nude) mice. To be noted: 50 mg/kg intravenous, four doses (day 0, 4, 8, 12), compared to vehicle control.
Description: Female BALB/cAnN-nu (nude) mice (5-8 weeks old) are housed in the Laboratory Animal Unit, The University of Hong Kong. The mice are freely access to food and water. SKOV-3 ovarian cancer cells (1×10^7) in PBS (100 μL) are injected into the right flanks of each mouse subcutaneously. […] The mice are treated with intravenous administration of a total of four doses on day 0, 4, 8 and 12. The tumor size and body weight are monitored during the treatment. After 28 days, the mice are sacrificed and the tumor weight is measured.

The IC50 is the point on the concentration scale where inhibition reaches its midpoint. The low end stands for greater potency, the high end for weaker potency.

Take `COc1ccc(CCc2cc(OC)c(OC)c(OC)c2)cc1O` [Erianin, erianin]: the IC50 was determined as 21.4 ± 0.3 nM in assay [1], 25.7 ± 0.2 nM in assay [2], 21.6 ± 0.2 nM in assay [3] and 24.1 ± 0.1 nM in assay [4]. The tumor growth suppression entry in assay [5] is “no effect”.
